{"source": "paper PMC7816212", "about": "(Nature, 2020)", "assay_type_in_all_cases": "binding", "key": {"BCL6 [1]": {"target": "BCL6 (Homo sapiens, UniProt P41182)", "test": "competitive TR-FRET, displacement of FITC-BCoR peptide"}, "BCL6 [2]": {"target": "BCL6 (Homo sapiens, UniProt P41182, E41A)", "test": "competitive TR-FRET, displacement of FITC-BCoR peptide"}, "BCL6 [3]": {"target": "BCL6 (Homo sapiens, UniProt A5PL18)", "test": "cryo-EM of the BCL6 filament"}}}
{"molecule": "CNC(=O)COc1cc2cc(Nc3nc(N4CCC(C(=O)N(C)C)CC4)ncc3Cl)cc(OC)c2n(C)c1=O", "note": "[BI-3812]", "values": [{"measurement": "competitive TR-FRET, displacement of FITC-BCoR peptide", "setting": "BCL6 [1]", "result": "despite comparable affinity of both BI-3802 and BI-3812 to BCL6 (Extended Data Fig. 8h)"}]}
{"molecule": "CNC(=O)COc1cc2cc(Nc3nc(N4C[C@H](C)C[C@H](C)C4)ncc3Cl)ccc2n(C)c1=O", "note": "[BI-3802]", "values": [{"measurement": "competitive TR-FRET, displacement of FITC-BCoR peptide", "setting": "BCL6 [2]", "result": "the E41A substitution did not impair drug binding to BCL6 (Extended Data Fig. 4f)"}, {"measurement": "EC50", "setting": "BCL6 [3]", "result": 0.064, "unit": "µM"}]}
